Data from article PMC5642494 (Oncotarget, 2017).
Read-outs that look alike come from different tables or passages of the source.

Legend:
MDA-MB-361 cells = test: Annexin V/PI flow cytometry, MDA-MB-361; type: cell-based, human; conditions: 3 DT (untreated 45.7%)
Description: Annexin V/PI staining was performed following the vendor’s specifications in MCF7 and MDA-MB-361 cells. […] Raw data were analyzed with FlowJo X software. Events were gated for debris exclusion and singlets selection. A minimum of 10,000 cells were analyzed per sample.

[1] = tested on: MCF7, MDA-MB-361 and EFM-19 cells; test: Cell morphology by bright field microscopy; type: cell-based, human; conditions: 0.5 µM, 3 DT
Description: (A–D) Cells were treated with 0.2% DMSO (A MDA-
3 DT and side scatter (SSC) analysis was carried out using flow cytometry and analyzed with FlowJo X software.

FOXM1 = FOXM1 protein expression, EFM-19; type: cell-based; conditions: Homo sapiens, 1 DT, read-out: IC50 reduction in FOXM1 positive cells
Description: Relative IC50/EC50 values were determined by curve fitting to a four parameter logistic equation: Y = bottom + ((top-bottom)/ (1+exp(HillSlope*(X – LnIC50)), where X is the natural log of dose/concentration, Y is response, decreasing as X increases, top and bottom are plateaus in the same units as Y, lnIC50 is the natural log of potency, in the same log units as X, and HillSlope measures the steepness of the curve. Data were plotted using GraphPad Prism.
After 72 hours, cells were stained with an anti-FOXM1 antibody and a secondary goat anti-rabbit IgG, Alexa Fluor® 488 conjugate; nuclei were stained with propidium iodide (PI). Alternatively, for assessment of Ki-67 levels, cells were treated for 2 DT and then stained with Ki-67 and a secondary goat anti-rabbit IgG, Alexa Fluor® 488 conjugate. Plates were read in an Acumen Explorer Ex3 (TTP Labtech) using Cellista software and the percentages of FOXM1 positive and Ki-67 positive cells were calculated over the background signal. Data were normalized in Excel using the mean value obtained from treatment with 2 µM BEZ235 as the minimum and the mean value obtained from treatment with 0.2% DMSO as the maximum.

CDK4/cyclin D1 complexes = molecular target: CDK4/cyclin D1 complexes; design: method as in PMID 24919854; conditions: cell-free; read-out: Ki^ATP CDK4/cyclin D1; cited from earlier work
MCF7 cells = test: TCA metabolite profiling by LC/MS in MCF7; type: cell-based, human; conditions: for EC50: Homo sapiens, MCF7, MCF7, single experiment, read-out: EC50 α-ketoglutarate; for Aspartate level / Citrate level / Fumarate level / Glutamate level / Isocitrate level / Lactate level / Malate level / Pyruvate level / Succinate level / α-ketoglutarate level: MCF7, 3 DT, normalized to DMSO = 1, n = 3
Description: MCF7 cells were plated at 20,000 cells/well in 24-well plate; approximately 14–24 hours after seeding, cells were treated with DMSO (vehicle) or the indicated compounds diluted in DMSO. Cells were incubated for three different incubation times: 48 hours (1 DT), 96 hours (2 DT), and […] (3 DT). After treatment, cells were harvested and the collected pellet was stored at -80°C. For additional details see Supplemental Methods and Supplementary Table 1. […]
SA-β-gal Cell samples were lysed after treatment with expression was determined using the Senescence Cells 100 µL lysis buffer and transferred to a 96-well plate.
Histochemical Staining Kit (Sigma, CS0030) following 30 µL of each sample were transferred into deep well the vendor ’s manual. Images were taken at 100x by bright plates using TECAN-EVO Workstation. Samples were field microscopy (Leica DMiL). treated for derivatization of the metabolites of interest and internal standards. For this, 50 µL of derivatization reagent
Proliferation studies after washouts (EdU Click- and 80 µL of internal standard (IS, SupplementaryTable iT®) 1), were added with multidrop, plates were vortexed for 5 mins and let sit for one hour at 4 °C. The IS used were the Cells were plated onto poly-D-lysine D or 13C-labeled commercial analogues of nine of the ten coated 96-well plates at a density of 2,000–6,000 metabolites, prepared at 25 µM in water (Supplementary viable cells per well, and treated with abemaciblib or Table 1). The derivatization reagents (from Sigma), palbociclib at 1µM following the cell treatment and 3-nitrophenylhydrazine (0.5 M) and the coupling buffer washout schedule shown on Supplementary Figure 1A. [N-(3-Dimethylaminopropyl)-N′-ethylcarbodiimide An EdU (5-ethynyl-2’-deoxyuridine) pulse was added hydrochloride (1M) were freshly prepared in 75:24:1 one hour prior to the end of study at a final concentration methanol/water/pyridine. of 10 µM as described in the kit protocol (Click-iT After derivatization, a liquid-liquid extraction step High Content Imaging EdU Incorporation kit (Life with ethyl acetate was carried out in two steps; the upper Technologies cat# C10351)). The cells were then fixed phase was transferred to a new deep-well plate with in the presence of 3.7% formaldehyde for 20 minutes at TECAN-EVO, and the joint extract was evaporated to 37°C, and permeabilized with 0.1% Triton-X 100 in PBS dryness with nitrogen, and reconstituted with 50% H2O/ for 10 minutes at 25°C, then washed twice with PBS. MetOH. A set of calibrants at 12 levels of the analytes They were blocked using 1% bovine serum albumin was derivatized in parallel following the same protocol.
(BSA) (Invitrogen #15260-037) for 1 hour at 25°C. EdU Samples were analyzed by LC─MS/MS under the detection was performed using the Click-iT High Content conditions described below. […]
Mass Spectrometer (qQq) with JetStream Electrospray
Objects were identified using an algorithm to Ionization (ESI) Source, coupled to a LC1290 Infinity detect nuclear staining with Hoechst 33342 dye. The High-Performance Liquid Chromatograph. The software relative levels and sub-cellular localization of EdU were for data collection and treatment was Agilent Masshunter determined through the respective intensities and locations Workstation. Mobile phases for chromatography were: of Alexa-488 fluorescence. mobile phase A: formic acid (5 mM) and ammonium formate (10 mM) in water; mobile phase B: acetonitrile.
Assessment of hypermethylation of histone H3 at 50% Acetonitrile/water were used to clean the lysine 9 (H3K9me3) injection needle after each injection. A reverse-phase chromatographic column (XBridge BEH C18 3.5 µm, MCF7 and EFM-19 cells were plated in 96-well 2.1 × 50 mm) from […] plates and treated at 20 µM (or a 3-fold dilution series) was used as stationary phase. Chromatographic separation […]
Tecan Genesis RSP100 liquid-handling system was used mobile phase A in 6 min; then to 5% in 0.1 min, maintained […]

In the case of CCN1CCN(Cc2ccc(Nc3ncc(F)c(-c4cc(F)c5nc(C)n(C(C)C)c5c4)n3)nc2)CC1 [abemaciclib, Abemaciclib], the “cells positive for annexin V” value (MDA-MB-361 cells; 0.5 µM) is reported as 84.6%, the “cells positive for annexin V” value (MDA-MB-361 cells; 2 µM) is reported as 88.8% and the cell morphology [1] is reported as “larger and flatter compared to vehicle-treated cells”. The IC50 (FOXM1) was 8 nM, the Ki (CDK4/cyclin D1 complexes) was 0.6 nM and the EC50 (MCF7 cells; 1 DT) was 370 nM. For the same molecule, the EC50 (MCF7 cells; 2 DT) was 280 nM, the EC50 (MCF7 cells; 3DT) was 730 nM and the Aspartate level (MCF7 cells; 0.5 µM) was 0.72 ± 0.10. The Citrate level (MCF7 cells; 0.5 µM) was 1.20 ± 0.27, the Fumarate level (MCF7 cells; 0.5 µM) was 0.12 ± 0.02 and the Glutamate level (MCF7 cells; 0.5 µM) was 0.71 ± 0.06. For the same molecule, the Isocitrate level (MCF7 cells; 0.5 µM) was 1.90 ± 0.65, the Lactate level (MCF7 cells; 0.5 µM) was 0.30 ± 0.02 and the Malate level (MCF7 cells; 0.5 µM) was 0.22 ± 0.01. The Pyruvate level (MCF7 cells; 0.5 µM) was 1.22 ± 0.64, the Succinate level (MCF7 cells; 0.5 µM) was 0.35 ± 0.08 and the α-ketoglutarate level (MCF7 cells; 0.5 µM) was 0.13 ± 0.03. The Aspartate level (MCF7 cells; 2 µM) was 0.47 ± 0.13, the Citrate level (MCF7 cells; 2 µM) was 1.07 ± 0.3 and the Fumarate level (MCF7 cells; 2 µM) was 0.12 ± 0.07. It also gave a Glutamate level (MCF7 cells; 2 µM) of 1.10 ± 0.38, an Isocitrate level (MCF7 cells; 2 µM) of 0.81 ± 0.52 and a Lactate level (MCF7 cells; 2 µM) of 0.38 ± 0.15. It also gave a Malate level (MCF7 cells; 2 µM) of 0.09 ± 0.03, a Pyruvate level (MCF7 cells; 2 µM) of 3.59 ± 1.65 and a Succinate level (MCF7 cells; 2 µM) of 0.65 ± 0.23. It also gave a α-ketoglutarate level (MCF7 cells; 2 µM) of 0.08 ± 0.02.
